For data set [1] the following is noted: rat, in vivo, 2.5 mg/kg.
Protocol: (§1) Ten female rats of SD strain were anesthetized with isoflurane. In order to secure the same conditions as those for drug-administered animals, their spinal cord was transected at the T8-T9 (the eighth thoracic cord—the ninth thoracic cord) level. Then, a cannula for blood collection was inserted into the femoral artery. […] These drugs were each dissolved in 0.5% MC. Thirty minutes after oral administration, up to 250 μL of blood was collected from the femoral artery or the tail vein and treated with heparin. The collected blood was immediately cooled on ice and centrifuged under conditions involving 3,000 rpm and 4° C. for 10 minutes to obtain plasma. The plasma samples were stored under conditions of −80° C. until drug quantification.
(§2) After thawing of the plasma samples, the internal standard compound was added thereto, and the mixture was then centrifuged under conditions of 5,250 rpm. The drug contained in 60 μL of the supernatant was quantified by LC-MS/MS.
A short description of data set [2]: Plasma concentrations in rats 30 minutes after oral administration (effective plasma concentration at LPP10). The settings on record: rat; measured concentration multiplied by ratio between dosage used and LPP10.
Protocol: as §1, §2
Data set [3] is described as follows: Comparison of plasma concentrations for urethra-closing effect and anti-obesity effect (analysis of Examples 1-9 and literature). The settings on record: free form; extrapolated, 3.3-fold less than rat 670 ng/mL.
The subject of data set [4] is urethral resistance increasing effect of Compound A′. The data set is described as follows: Influence of antagonists (SB 242084, methiothepin) on urethral resistance increasing effect of Compound A′ in rats. The settings on record: mean ± SEM; for LPP Increase: Post minus Pre; for LPP Pre: before administration. Format: in vivo, rat. The procedure: Ninety female rats of SD strain were used. […] Isoflurane inhalation was added during the surgery, if necessary. In the experiment with intrathecal administration, the dura mater was exposed by laminectomy and then partially opened by incision, through which a catheter (PE-10) filled with saline was then implanted at the level of the L6-S1 site, followed by the closing of the incision. After opening of the abdomen, a catheter (PE-90) was inserted into the bladder. In order to secure reduced urethral resistance, unilateral nerve to iliococcygeus and pubococcygeus muscles was transected. For intraduodenal administration, another catheter (PE-50) was inserted into the duodenum in advance. The abdominal muscle and skin were each closed with sutures. Two (right and left) sites of abdominal skin near the diaphragm were cut to expose abdominal muscle. The bladder was emptied through the catheter, followed by the injection of 0.2 to 0.3 mL of Evans blue solution. Change in intravesical pressure was recorded using the bladder catheter via a pressure transducer, an electric signal amplifier, and an analog-to-digital converter. While change in intravesical pressure was recorded, the presence or absence of fluid leakage from the urethral orifice was observed under the electrical stimulation of the exposed abdominal muscle using an electrical stimulator and an isolator. […] The peak of the intravesical pressure during the stimulation of the abdominal muscle was measured, and the lowest pressure at which the fluid leakage was observed among the trials was defined as LPP for the electrical abdominal muscle stimulation method. In order to examine whether the urethral resistance increasing effect of Compound A′ is based on its agonistic potency on 5-HT2C receptors, SB 242084, methiothepin, or a vehicle was intravenously administered, and Compound A′ or a vehicle was intraduodenally administered 5 minutes later. SB 242084 was dissolved in a mixed solution of N,N-dimethylacetamide and polyethylene glycol 400 (1:1) and administered at 0.03 mg/0.5 mL/kg, 0.1 mg/0.5 mL/kg and 0.3 mg/0.5 mL/kg. Methiothepin was dissolved in saline and administered at 0.03 mg/0.5 mL/kg. 0.1 mg/0.5 mL/kg and 0.3 mg/0.5 mL/kg. Compound A′ was suspended in 0.5% MC and administered at 3 mg/mL/kg. LPP was measured again 30 minutes after Compound A′ administration. In order to examine where Compound A′ works in the body to increase urethral resistance, the blocking of the effect of Compound A′ was confirmed by blocking the functions of Compound A′ by giving methiothepin at a particular site in the body. Particularly, in the experiment with intrathecal administration, methiothepin or a vehicle was intrathecally administered, and Compound A′ or a vehicle was intraduodenally administered 5 minutes later. Methiothepin was dissolved in saline and 20 μL of the obtained solution was administered. Compound A′ was suspended in 0.5% MC and administered at 3 mg/mL/kg. LPP was measured again 30 minutes after Compound A′ administration.
Regarding change in LPP before and after drug administration, the differences between the mean values of the Compound A′-treated and vehicle-treated groups were analyzed by the Student's t test or the Welch's test. In order to analyze the influence of the antagonists on the effect of Compound A′, the differences between the mean values of the SB 242084- or methiothepin- and Compound A′-administered group and the vehicle- and Compound A′-administered group were analyzed by the one-tailed Williams' test.

Data set [5] has as its system anus-closing function increasing effect of Compound A′. The data set is described as follows: Influence of SB 242084 on Compound A′-induced rat anus-closing function increasing effect (Anal LPP). Format: in vivo. The settings on record: SB242084 0.3 mg/kg i.v. then Compound A′ 1 mg/kg i.v.; 5 minutes after Compound A′; n=9. As for the experimental part:
Eighteen female SD rats were used. After overnight fasting, rats were intraperitoneally administered with urethane for anesthesia, and isoflurane inhalation was added during surgery. The abdomen was incised to expose the rectum, and a small incision of the rectum was made. A polyethylene catheter (SP61, Natsume) was inserted into the rectum through the rectum incision, and the tip of the catheter was positioned around 5 mm from the anal orifice. The other end of the catheter was connected with a pressure transducer and an infusion pump via three-way stopcocks, and the change in pressure in the rectum was measured using the pressure transducer, an electric signal amplifier, and an analog-to-digital converter. For administrating drugs, a polyethylene catheter (SP45, Natsume) was inserted into the femoral vein after exposing the vein by small incision.
After recovery period from surgery, while saline was infused at a speed of 0.1 mL/sec into the rectum using an infusion pump, change in the measured pressure—was observed. […] The peak value of the pressure recorded in the rectum during the course of the procedures was defined as “an Anal LPP” in this Example. […] The Anal LPP was again measured in the same way 5 minutes after the administration with Compound A′. The difference in Anal LPP from the Pre value (increased amount of Anal LPP) was calculated. […]

The mark [6] stands for this setting: SB 242084 0.03 mg/kg i.v. + Compound A′ 3 mg/kg i.d.
The mark [7] stands for this setting: SB 242084 0.1 mg/kg i.v. + Compound A′ 3 mg/kg i.d.
[8] abbreviates: SB 242084 0.3 mg/kg i.v. + Compound A′ 0 mg/kg i.d.
Where [9] appears, read: SB 242084 0.3 mg/kg i.v. + Compound A′ 3 mg/kg i.d.

Take `CC(C)N(C)c1cnc2c(n1)OCCNC2.Cl` [Compound A, N-methyl-N-(1-methylethyl)-6,7,8,9-tetrahydropyrazino[2,3-f][1,4]oxazeine-3-amine]: the “plasma concentration 30 minutes after oral administration” value in data set [1] amounted to 94.8 ± 24.1 ng/mL. Also, the “plasma concentration at LPP10” value in data set [2] came out at 61 ng/mL. Further, the “average plasma concentration in a day (steady state) giving a body weight lowering effect greater than placebo by 3.8% in humans” value in data set [3] was 203 ng/mL.

In the case of `Cc1cc2c(cc1Cl)N(C(=O)Nc1ccc(Oc3cccnc3C)nc1)CC2` [SB 242084], the “LPP Post” value in data set [4] (SB 242084 0.03 mg/kg i.v. + Compound A′ 3 mg/kg i.d., 30 minutes after Compound A′) was found to be 73.9 ± 8.7 cmH2O; in data set [4] (SB 242084 0.1 mg/kg i.v. + Compound A′ 3 mg/kg i.d., 30 minutes after Compound A′), 57.6 ± 12.2 cmH2O; in data set [4] (SB 242084 0.3 mg/kg i.v. + Compound A′ 0 mg/kg i.d., 30 minutes after i.d. administration), 49.3 ± 8.7 cmH2O; in data set [4] (SB 242084 0.3 mg/kg i.v. + Compound A′ 3 mg/kg i.d., 30 minutes after Compound A′), 48.0 ± 6.9 cmH2O. In addition, the “LPP Increase” value came to 29.9 ± 8.4 cmH2O in data set [4] (setting [6]), 12.6 ± 6.3 cmH2O in data set [4] (setting [7]), 3.4 ± 4.6 cmH2O in data set [4] (setting [8]) and 3.8 ± 4.4 cmH2O in data set [4] (setting [9]). For the same compound, the “LPP Pre” value in data set [4] (setting [6]) came to 44.0 ± 7.4 cmH2O; in data set [4] (setting [7]) it was 45.0 ± 6.7 cmH2O; in data set [4] (setting [8]) it was 45.9 ± 5.4 cmH2O; in data set [4] (setting [9]) it was 44.3 ± 7.0 cmH2O. Moreover, the “Anal LPP Increase” value in data set [5] was -2.6±4.1 cmH2O.
